Data from article PMC8619920, “New Polyesterified Ursane Derivatives from Leaves of Maesa membranacea and Their Cytotoxic Activity” (Molecules, 2021).

Legend:
[1] = Cytotoxicity, LDH assay, DU145 cells; assay type: cell-based, human; conditions: human, DU145 prostate carcinoma cells, 24 h, mean ± SD of three, read-out: Cell viability DU145
Experimental: (§1) Cytotoxic activity was tested on human cancer and normal cells, grouped in three panels, namely: prostate, skin and gastrointestinal. The prostate panel consisted of prostate cancer cell lines Du145 (ATCC HTB-81) and PC3 (ATCC CRL-1435), and prostate epithelial cells PNT-2 (ECACC 95012613). Melanoma cell lines A375 (ATCC CRL-1619) and HTB140 (ATCC Hs 294T) together with skin keratinocytes HaCaT (obtained as a kind gift of prof. Marta Michalik, Department of Cell Biology, Jagiellonian University, Kraków, Poland) were included into the skin panel. The gastrointestinal panel of cells comprised colon cancer cell lines Caco-2 (ATCC HTB-37) and HT29 (ATCC HTB-38). Du145 cells were grown in Modified Eagle’s Medium with low (1.0 g/L) glucose concentration, HT29, PC3 and PNT-2 cells in Dulbecco’s Modified Eagle’s Media: F12 HAM Nutrient Mixture, Caco-2 in Modified Eagle’s Medium with NEAA (no-essential amino acids) while melanoma cells and keratinocytes were maintained in Modified Eagle’s Medium with high (4.5 g/L) glucose concentration. The culture media (all supplied by Sigma-Aldrich Co.; St. Louis, MO, USA) contained antibiotics and 10% fetal bovine serum (FBS). All cultures were maintained at 37 °C, in a humidified, 5% CO2 containing, atmosphere.
(§2) The examined triterpenes were diluted in the culture media from freshly made stock solutions in MeOH (10 mg/mL) to the working concentrations (from 0 to 100 μg/mL).
(§3) Cell viability was determined as it was described previously. Cells suspended in the nutrient medium were transferred into 96-well microtiter plates (density 1.5 × 10^4 per well), and preincubated for 24 h (37 °C, 5% CO2). Then, the culture medium was replaced with the medium containing different concentrations of 1 or 2 (1–100 μg/mL). After 24 h of incubation, viability of the cells was determined using colorimetric lactate dehydrogenase (LDH) assay, in comparison to the controls to which corresponding aliquots of MeOH diluted with culture media were added. Cells grown in the medium without the tested compounds were used as control I (negative) and the positive control (control II) was obtained by incubation of the cells in the medium containing 1% Triton X-100. LDH released from the damaged cells into the cell culture medium was quantified by measuring the absorbance at 490 nm using Synergy II Biotek (BioTek Instruments, Winooski, VT, USA) microplate reader. Cytotoxicities of the examined compounds were calculated as follows: [(absorbance of the tested sample − absorbance of control I)/(absorbance of control II − absorbance of control I)] × 100. Results were means of three independent measurements (± SD). Doxorubicin (Ebewe Pharma GmbH., Unterach, Austria) was used as a reference cytostatic drug. The IC50 values were determined by plotting the percentage viability of the cells versus concentration and the adequate calculations made using AAT Bioquest website program (https://www.aatbio.com/tools/ic50-calculator, accessed on 29 October 2021).

[2] = test system: DU145 human prostate carcinoma cells; test: Cytotoxicity, LDH assay, DU145 cells; assay type: cell-based; conditions: 24 h treatment; for IC50: Homo sapiens, DU-145, 24 h
Experimental: as §1, §2, §3

[3] = test system: A375 human malignant melanoma cells; test: Cytotoxicity, LDH assay, A375 cells; assay type: cell-based; conditions: Homo sapiens, A-375; 24 h treatment, 5–100 μg/mL
Experimental: as §1, §2, §3

[4] = Cytotoxicity, LDH assay, A375 cells; assay type: cell-based, human; conditions: human, A375 malignant melanoma cells, 24 h, mean ± SD of three, read-out: Cell viability A375
Experimental: as §1, §2, §3

[5] = test system: PC3 human prostate adenocarcinoma cells; test: Cytotoxicity, LDH assay, PC3 cells; assay type: cell-based; conditions: 24 h treatment; for IC50: Homo sapiens, PC-3, 24 h
Experimental: as §1, §2, §3

[6] = Cytotoxicity, LDH assay, PC3 cells; assay type: cell-based, human; conditions: human, PC3 prostate adenocarcinoma cells, 24 h, mean ± SD of three, read-out: Cell viability PC3
Experimental: as §1, §2, §3

[7] = Cytotoxicity, LDH assay, HT29 cells; assay type: cell-based, human; conditions: human, HT29 colon adenocarcinoma cells, 24 h, mean ± SD of three, read-out: Cell viability HT29
Experimental: as §1, §2, §3

[8] = test system: HT29 human colon adenocarcinoma cells; test: Cytotoxicity, LDH assay, HT29 cells; assay type: cell-based; conditions: Homo sapiens, HT-29; 24 h treatment, 5–100 μg/mL
Experimental: as §1, §2, §3

[9] = test system: Caco-2 human colon adenocarcinoma cells; test: Cytotoxicity, LDH assay, Caco-2 cells; assay type: cell-based; conditions: 24 h treatment; for IC50: Homo sapiens, Caco-2, 24 h
Experimental: as §1, §2, §3

[10] = Cytotoxicity, LDH assay, Caco-2 cells; assay type: cell-based, human; conditions: human, Caco-2, 24 h, mean ± SD of three, read-out: Cell viability Caco-2
Experimental: as §1, §2, §3

[11] = Cytotoxicity, LDH assay, HTB140 cells; assay type: cell-based, human; conditions: human, HTB140 melanoma cells, 24 h, mean ± SD of three, read-out: Cell viability HTB140
Experimental: as §1, §2, §3

[12] = Cytotoxicity, LDH assay, PNT-2 cells; assay type: cell-based, human; conditions: human, 24 h, mean ± SD of three, read-out: Cell viability PNT-2
Experimental: as §1, §2, §3

[13] = test system: PNT-2 human normal prostate epithelium cells; test: Cytotoxicity, LDH assay, PNT-2 cells; assay type: cell-based
Experimental: as §1, §2, §3

Compound: CCC(C)C(=O)OC1C=C2C3C(C)C(C)(O)CC(OC(C)=O)C3(C)CCC2(C)C2(C)CC(OC(C)=O)C3C(C)(C)C(O)C(OC(C)=O)CC3(C)C12 (stereo not drawn) [Compound 1, 2α,6β,22α-triacetoxy-11α-(2-methylbutyryloxy)-urs-12-ene-3α,20β-diol]
- viability at 24 h, 5 μg/mL ([1]; 5 μg/mL): 93.19 ± 0.93%
- viability at 24 h, 10 μg/mL ([1]; 10 μg/mL): 83.1 ± 1.96%
- viability at 24 h, 20 μg/mL ([1]; 20 μg/mL): 70.4 ± 1.69%
- viability at 24 h, 30 μg/mL ([1]; 30 μg/mL): 57.2 ± 2.2%
- viability at 24 h, 40 μg/mL ([1]; 40 μg/mL): 41.3 ± 1.91%
- viability at 24 h, 50 μg/mL ([1]; 50 μg/mL): 27.2 ± 2.28%
- viability at 24 h, 100 μg/mL ([1]; 100 μg/mL): 9.87 ± 1.59%
- IC50 DU145 ([2]; 5–100 μg/mL): 35.83 µg/mL
- IC50 ([2]; 5–100 μg/mL): 35.8 µg/mL
- IC50 ([2]; value in brackets, footnote d): 50 µM
- IC50 [3]: > 100 µg/mL
- viability at 24 h, 5 μg/mL ([4]; 5 μg/mL): 97.23 ± 0.57%
- viability at 24 h, 10 μg/mL ([4]; 10 μg/mL): 96.44 ± 0.92%
- viability at 24 h, 20 μg/mL ([4]; 20 μg/mL): 92.8 ± 1.11%
- viability at 24 h, 30 μg/mL ([4]; 30 μg/mL): 87.2 ± 2.17%
- viability at 24 h, 40 μg/mL ([4]; 40 μg/mL): 79.8 ± 2.02%
- viability at 24 h, 50 μg/mL ([4]; 50 μg/mL): 70.2 ± 1.39%
- viability at 24 h, 100 μg/mL ([4]; 100 μg/mL): 62.6 ± 2.03%
- IC50 PC3 ([5]; 5–100 μg/mL): 41.64 µg/mL
- IC50 ([5]; 5–100 μg/mL): 41.6 µg/mL
- IC50 ([5]; value in brackets, footnote d): 58.1 µM
- viability at 24 h, 5 μg/mL ([6]; 5 μg/mL): 96.2 ± 1.04%
- viability at 24 h, 10 μg/mL ([6]; 10 μg/mL): 90.7 ± 0.93%
- viability at 24 h, 20 μg/mL ([6]; 20 μg/mL): 83.9 ± 1.67%
- viability at 24 h, 30 μg/mL ([6]; 30 μg/mL): 74.8 ± 1.17%
- viability at 24 h, 40 μg/mL ([6]; 40 μg/mL): 62.6 ± 1.36%
- viability at 24 h, 50 μg/mL ([6]; 50 μg/mL): 45.7 ± 1.85%
- viability at 24 h, 100 μg/mL ([6]; 100 μg/mL): 28.1 ± 2.31%
- viability at 24 h, 5 μg/mL ([7]; 5 μg/mL): 97.04 ± 0.42%
- viability at 24 h, 10 μg/mL ([7]; 10 μg/mL): 95.49 ± 0.82%
- viability at 24 h, 20 μg/mL ([7]; 20 μg/mL): 90.9 ± 1.37%
- viability at 24 h, 30 μg/mL ([7]; 30 μg/mL): 81.5 ± 1.89%
- viability at 24 h, 40 μg/mL ([7]; 40 μg/mL): 72.5 ± 1.94%
- viability at 24 h, 50 μg/mL ([7]; 50 μg/mL): 64.8 ± 1.69%
- viability at 24 h, 100 μg/mL ([7]; 100 μg/mL): 55.2 ± 1.73%
- IC50 [8]: > 100 µg/mL
- IC50 Caco-2 ([9]; 5–100 μg/mL): 35.65 µg/mL
- IC50 ([9]; 5–100 μg/mL): 35.7 µg/mL
- IC50 ([9]; value in brackets, footnote d): 49.8 µM
- viability at 24 h, 5 μg/mL ([10]; 5 μg/mL): 95.55 ± 0.74%
- viability at 24 h, 10 μg/mL ([10]; 10 μg/mL): 88.7 ± 0.93%
- viability at 24 h, 20 μg/mL ([10]; 20 μg/mL): 78.5 ± 1.94%
- viability at 24 h, 30 μg/mL ([10]; 30 μg/mL): 65.9 ± 1.21%
- viability at 24 h, 40 μg/mL ([10]; 40 μg/mL): 51.1 ± 2.4%
- viability at 24 h, 50 μg/mL ([10]; 50 μg/mL): 35.8 ± 1.32%
- viability at 24 h, 100 μg/mL ([10]; 100 μg/mL): 22.2 ± 1.53%
- viability at 24 h, 5 μg/mL ([11]; 5 μg/mL): 96.2 ± 1.12%
- viability at 24 h, 10 μg/mL ([11]; 10 μg/mL): 93.82 ± 0.73%
- viability at 24 h, 20 μg/mL ([11]; 20 μg/mL): 87.1 ± 2.09%
- viability at 24 h, 30 μg/mL ([11]; 30 μg/mL): 78.9 ± 2.08%
- viability at 24 h, 40 μg/mL ([11]; 40 μg/mL): 68.4 ± 2.17%
- viability at 24 h, 50 μg/mL ([11]; 50 μg/mL): 59.5 ± 1.4%
- viability at 24 h, 100 μg/mL ([11]; 100 μg/mL): 46.6 ± 2.09%
- viability at 24 h, 10 μg/mL ([12]; PNT-2 normal prostate epithelium cells, 10 μg/mL): 96.77 ± 0.6%
- viability at 24 h, 100 μg/mL ([12]; PNT-2 normal prostate epithelium cells, 100 μg/mL): 59 ± 2.2%
- viability at 24 h, 5 μg/mL ([12]; PNT-2 prostate epithelial cells, 5 μg/mL): 96.61 ± 0.53%
- viability at 24 h, 20 μg/mL ([12]; PNT-2 prostate epithelial cells, 20 μg/mL): 94.59 ± 0.9%
- viability at 24 h, 30 μg/mL ([12]; PNT-2 prostate epithelial cells, 30 μg/mL): 91 ± 1.07%
- viability at 24 h, 40 μg/mL ([12]; PNT-2 prostate epithelial cells, 40 μg/mL): 83 ± 1.41%
- viability at 24 h, 50 μg/mL ([12]; PNT-2 prostate epithelial cells, 50 μg/mL): 70.7 ± 2.58%
- Reduction of viability of PNT-2 cells ([13]; 100 µg/mL): 41%
- IC50 ([13]; Homo sapiens, PNT2, 24 h treatment, 5–100 μg/mL): > 100 µg/mL
